Results as given in ChEMBL document CHEMBL3414456, “Pentacyclic triterpene derivatives possessing polyhydroxyl ring A inhibit gram-positive bacteria growth by regulating metabolism and virulence genes expression” (2015).
Values after ≈ are worked out from the molar mass of the structure shown. Active and inactive are the calls of the source. No cut-off for these calls is given here.

Legend:
Bacillus spizizenii [1] = assay: Antibacterial activity against Bacillus subtilis ATCC 6633 assessed as growth inhibition at 100 uM after 24 hrs by turbidimetric analysis; type: functional; conditions: for inhibition of growth at 100 µM: ATCC 6633, 24 h, read-out: GI
Staphylococcus aureus [2] = assay: Antibacterial activity against Staphylococcus aureus ATCC 25923 assessed as growth inhibition at 100 uM after 24 hrs by turbidimetric analysis; type: functional; conditions: for inhibition of growth at 100 µM: ATCC 25923, 24 h, read-out: GI
Bacillus spizizenii [3] = assay: Antibacterial activity against Bacillus subtilis ATCC 6633 assessed as growth inhibition after 24 hrs by turbidimetric analysis; type: functional; conditions: ATCC 6633, 24 h
Staphylococcus aureus [4] = assay: Antibacterial activity against Staphylococcus aureus ATCC 25923 assessed as growth inhibition after 24 hrs by turbidimetric analysis; type: functional; conditions: ATCC 25923, 24 h
Streptomyces scabiei [5] = assay: Antibacterial activity against Streptomyces scabiei CGMCC4.7610246 assessed as growth inhibition after 36 hrs by turbidimetric analysis; type: functional; conditions: CGMCC4.7610246, 36 h
Streptomyces scabiei [6] = assay: Antibacterial activity against Streptomyces scabiei CGMCC4.7610246 assessed as growth inhibition at 100 uM after 36 hrs by turbidimetric analysis; type: functional, organism-based
Escherichia coli = assay: Antibacterial activity against Escherichia coli assessed as growth inhibition at 100 uM after 24 hrs by turbidimetric analysis; type: functional, organism-based
Ralstonia solanacearum = assay: Antibacterial activity against Ralstonia solanacearum assessed as growth inhibition at 100 uM after 24 hrs by turbidimetric analysis; type: functional, organism-based
Staphylococcus aureus [7] = assay: Antibacterial activity against Staphylococcus aureus ATCC 25923 assessed as growth inhibition after 2 to 24 hrs; type: functional, organism-based

Structure (SMILES)	MIC (Bacillus spizizenii [3]) [µM]	MIC (Staphylococcus aureus [4]) [µM]	MIC (Streptomyces scabiei [5]) [µM]	growth inhibition (GI) (Bacillus spizizenii [1])	growth inhibition (GI) (Staphylococcus aureus [2])	growth inhibition (GI) (Streptomyces scabiei [6])	other results
CCCCOC(=O)[C@]12CCC(C)(C)C[C@H]1C1=CC[C@@H]3[C@@]4(C)[C@@H](O)[C@H](O)[C@H](O)C(C)(C)[C@@H]4CC[C@@]3(C)[C@]1(C)CC2	≥ 100	8 (≈ 4.36 µg/mL)	≥ 100				inhibition of growth at 100 µM (Bacillus spizizenii [1]): > 95%; inhibition of growth at 100 µM (Staphylococcus aureus [2]): > 95%
CCCCCOC(=O)[C@]12CC[C@@H](C)[C@H](C)[C@H]1C1=CC[C@@H]3[C@@]4(C)[C@@H](O)[C@H](O)[C@H](O)C(C)(C)[C@@H]4CC[C@@]3(C)[C@]1(C)CC2				Active	Active		
C[C@H]1[C@H](C)CC[C@]2(C(=O)OCc3ccccc3Cl)CC[C@]3(C)C(=CC[C@@H]4[C@@]5(C)[C@@H](O)[C@H](O)[C@H](O)C(C)(C)[C@@H]5CC[C@]43C)[C@H]12				Active	Active	inactive	
C[C@H]1[C@H](C)CC[C@]2(C(=O)OCc3ccccc3)CC[C@]3(C)C(=CC[C@@H]4[C@@]5(C)[C@H]6O[C@H]6[C@@H](O)C(C)(C)[C@@H]5CC[C@]43C)[C@H]12				Active	Active	Active	growth inhibition (GI) (Escherichia coli): Active; growth inhibition (GI) (Ralstonia solanacearum): Active
CC1(C)CC[C@]2(C(=O)OCc3ccccc3[N+](=O)[O-])CC[C@]3(C)C(=CC[C@@H]4[C@@]5(C)[C@@H](O)[C@H](O)[C@H](O)C(C)(C)[C@@H]5CC[C@]43C)[C@@H]2C1				Active	Active	inactive	
COC(=O)[C@]12CC[C@@H](C)[C@H](C)[C@H]1C1=CC[C@@H]3[C@@]4(C)[C@@H](O)[C@H](O)[C@H](O)C(C)(C)[C@@H]4CC[C@@]3(C)[C@]1(C)CC2	32 (≈ 16.1 µg/mL)	8 (≈ 4.02 µg/mL)	64 (≈ 32.2 µg/mL)				inhibition of growth at 100 µM (Bacillus spizizenii [1]): > 95%; inhibition of growth at 100 µM (Staphylococcus aureus [2]): > 95%
CC1(C)CC[C@]2(C(=O)OCc3ccc(Cl)cc3)CC[C@]3(C)C(=CC[C@@H]4[C@@]5(C)[C@@H](O)[C@H](O)[C@H](O)C(C)(C)[C@@H]5CC[C@]43C)[C@@H]2C1	≥ 100	64 (≈ 39.2 µg/mL)	≥ 100			inactive	
CC1(C)CC[C@]2(C(=O)O)CC[C@]3(C)C(=CC[C@@H]4[C@@]5(C)[C@H]6O[C@H]6C(=O)C(C)(C)[C@@H]5CC[C@]43C)[C@@H]2C1				Active		Active	
C[C@H]1[C@H](C)CC[C@]2(C(=O)O)CC[C@]3(C)C(=CC[C@@H]4[C@@]5(C)[C@@H](O)[C@H](O)[C@H](O)C(C)(C)[C@@H]5CC[C@]43C)[C@H]12				Active	Active	Active	
C[C@H]1[C@H](C)CC[C@]2(C(=O)OCc3ccccc3)CC[C@]3(C)C(=CC[C@@H]4[C@@]5(C)C=CC(=O)C(C)(C)[C@@H]5CC[C@]43C)[C@H]12				Active	Active	Active	
CCCCCCCCCCCCCCCOC(=O)[C@]12CC[C@@H](C)[C@H](C)[C@H]1C1=CC[C@@H]3[C@@]4(C)[C@@H](O)[C@H](O)[C@H](O)C(C)(C)[C@@H]4CC[C@@]3(C)[C@]1(C)CC2				Active	Active		
CN[C@@H]1[C@H](O[C@H]2[C@H](O[C@H]3[C@H](O)[C@@H](O)[C@H](N=C(N)N)[C@@H](O)[C@@H]3N=C(N)N)O[C@@H](C)[C@]2(O)C=O)O[C@@H](CO)[C@H](O)[C@H]1O [STREPTOMYCIN]	2 (≈ 1.16 µg/mL)	≥ 100	4 (≈ 2.33 µg/mL)				
CC1(C)CC[C@]2(C(=O)O)CC[C@]3(C)C(=CC[C@@H]4[C@@]5(C)[C@@H](O)[C@H](O)[C@H](O)C(C)(C)[C@@H]5CC[C@]43C)[C@@H]2C1					Active		
CC1(C)CC[C@]2(C(=O)O)CC[C@]3(C)C(=CC[C@@H]4[C@@]5(C)C=CC(=O)C(C)(C)[C@@H]5CC[C@]43C)[C@@H]2C1				Active	Active	Active	
CCCCCOC(=O)[C@]12CCC(C)(C)C[C@H]1C1=CC[C@@H]3[C@@]4(C)[C@@H](O)[C@H](O)[C@H](O)C(C)(C)[C@@H]4CC[C@@]3(C)[C@]1(C)CC2				Active	Active		
CC(C)OC(=O)[C@]12CCC(C)(C)C[C@H]1C1=CC[C@@H]3[C@@]4(C)[C@@H](O)[C@H](O)[C@H](O)C(C)(C)[C@@H]4CC[C@@]3(C)[C@]1(C)CC2	64 (≈ 34 µg/mL)	8 (≈ 4.25 µg/mL)	≥ 100				inhibition of growth at 100 µM (Bacillus spizizenii [1]): > 95%; inhibition of growth at 100 µM (Staphylococcus aureus [2]): > 95%
C[C@H]1[C@H](C)CC[C@]2(C(=O)OCc3ccc([N+](=O)[O-])cc3)CC[C@]3(C)C(=CC[C@@H]4[C@@]5(C)[C@@H](O)[C@H](O)[C@H](O)C(C)(C)[C@@H]5CC[C@]43C)[C@H]12				Active	Active	inactive	
CC1(C)CC[C@]2(C(=O)OCc3ccc([N+](=O)[O-])cc3)CC[C@]3(C)C(=CC[C@@H]4[C@@]5(C)[C@@H](O)[C@H](O)[C@H](O)C(C)(C)[C@@H]5CC[C@]43C)[C@@H]2C1				Active	Active	inactive	
CCCOC(=O)[C@]12CC[C@@H](C)[C@H](C)[C@H]1C1=CC[C@@H]3[C@@]4(C)[C@@H](O)[C@H](O)[C@H](O)C(C)(C)[C@@H]4CC[C@@]3(C)[C@]1(C)CC2	32 (≈ 17 µg/mL)	8 (≈ 4.25 µg/mL)	≥ 100				inhibition of growth at 100 µM (Bacillus spizizenii [1]): > 95%; inhibition of growth at 100 µM (Staphylococcus aureus [2]): > 95%
CC1(C)S[C@@H]2[C@H](NC(=O)[C@H](N)c3ccccc3)C(=O)N2[C@H]1C(=O)O [AMPICILLIN]	≥ 100	4 (≈ 1.4 µg/mL)	≥ 100				
CCCCCCCCCCCCCCCOC(=O)[C@]12CCC(C)(C)C[C@H]1C1=CC[C@@H]3[C@@]4(C)[C@@H](O)[C@H](O)[C@H](O)C(C)(C)[C@@H]4CC[C@@]3(C)[C@]1(C)CC2				Active	Active		
CCCOC(=O)[C@]12CCC(C)(C)C[C@H]1C1=CC[C@@H]3[C@@]4(C)[C@@H](O)[C@H](O)[C@H](O)C(C)(C)[C@@H]4CC[C@@]3(C)[C@]1(C)CC2	64 (≈ 34 µg/mL)	2 (≈ 1.06 µg/mL)	≥ 100				inhibition of growth at 100 µM (Bacillus spizizenii [1]): > 95%; inhibition of growth at 100 µM (Staphylococcus aureus [2]): > 95%; growth inhibition (GI) (Staphylococcus aureus [7]): Dose-dependent effect
C[C@H]1[C@H](C)CC[C@]2(C(=O)OCc3ccccc3)CC[C@]3(C)C(=CC[C@@H]4[C@@]5(C)[C@@H](O)[C@H](O)[C@H](O)C(C)(C)[C@@H]5CC[C@]43C)[C@H]12					Active		
C[C@H]1[C@H](C)CC[C@]2(C(=O)OCc3ccc(Cl)cc3)CC[C@]3(C)C(=CC[C@@H]4[C@@]5(C)[C@@H](O)[C@H](O)[C@H](O)C(C)(C)[C@@H]5CC[C@]43C)[C@H]12				Active	Active	inactive	
CC1(C)CC[C@]2(C(=O)OCc3ccccc3Cl)CC[C@]3(C)C(=CC[C@@H]4[C@@]5(C)[C@@H](O)[C@H](O)[C@H](O)C(C)(C)[C@@H]5CC[C@]43C)[C@@H]2C1				Active	Active	inactive	
CCCCOC(=O)[C@]12CC[C@@H](C)[C@H](C)[C@H]1C1=CC[C@@H]3[C@@]4(C)[C@@H](O)[C@H](O)[C@H](O)C(C)(C)[C@@H]4CC[C@@]3(C)[C@]1(C)CC2	64 (≈ 34.9 µg/mL)	8 (≈ 4.36 µg/mL)	≥ 100				inhibition of growth at 100 µM (Bacillus spizizenii [1]): > 95%; inhibition of growth at 100 µM (Staphylococcus aureus [2]): > 95%
C[C@H]1[C@H](C)CC[C@]2(C(=O)OCc3ccccc3)CC[C@]3(C)C(=CC[C@@H]4[C@@]5(C)[C@H]6O[C@H]6C(=O)C(C)(C)[C@@H]5CC[C@]43C)[C@H]12				Active		Active	
C[C@H]1[C@H](C)CC[C@]2(C(=O)OCc3ccccc3[N+](=O)[O-])CC[C@]3(C)C(=CC[C@@H]4[C@@]5(C)[C@@H](O)[C@H](O)[C@H](O)C(C)(C)[C@@H]5CC[C@]43C)[C@H]12				Active	Active	inactive	
